Data from patent publication US4254278A, “1-Descarboxy-1-ketoester (ketoacid)-prostaglandins” (American Cyanamid Company, priority 1979, dated 1981).

Experiments:
Assay type in all cases: in vivo, guinea pigs
[1] = test system: bronchospasms elicited by histamine; assay: Bronchodilator activity against histamine-induced bronchospasm (Konzett procedure); details: guinea pig; histamine spasmogen; three logarithmic cumulative intravenous doses
Protocol: (§1) The compounds of this invention are useful as bronchodilators for the treatment of asthma and chronic bronchitis. Bronchodilator activity is determined in guinea pigs against bronchospasms elicited by intravenous injections of 5-hydroxytryptamine, histamine or acetylcholine by the Konzett procedure. [See J. Lulling, P. Lievens, F. El Sayed and J. Prignot, Arzneimittel-Forschung, 18, 955 (1968).]
(§2) In Table which follows bronchodilator activity for representative compounds of this invention against one or more of three spasmogenic agents is expressed as an ED50 determined from the results obtained with three logarithmic cummulative intravenous doses. In this assay, these compounds of this invention provide an effect of longer duration than does natural 1-PGE1 or 1-PGE2.

[2] = test system: bronchospasms elicited by acetylcholine; assay: Bronchodilator activity against acetylcholine-induced bronchospasm (Konzett procedure); details: guinea pig; acetylcholine spasmogen; three logarithmic cumulative intravenous doses
Protocol: as §1, §2

[3] = test system: bronchospasms elicited by 5-hydroxytryptamine; assay: Bronchodilator activity against 5-hydroxytryptamine-induced bronchospasm (Konzett procedure); details: guinea pig; 5-hydroxytryptamine spasmogen; three logarithmic cumulative intravenous doses
Protocol: as §1, §2

SMILES	ED50 HIST. [1] [Mg/kg × 10^-6]	ED50 ACH [2] [Mg/kg × 10^-6]	ED50 5HT [3] [Mg/kg × 10^-6]
CCCCCC(C)(O)/C=C/C1C(O)CC(=O)C1CCCCCCC(=O)C(=O)OCC (stereo not drawn) [d1-1,9-dioxo-1-carbethoxy-11α,15-dihydroxy-15-methyl-13-trans-prostene]	6050	> 3.2	4220
CCCCC(C)(O)C/C=C/C1C(O)CC(=O)C1/C=C\CCCCC(=O)C(=O)OCC (stereo not drawn) [d1-1,9-dioxo-1-carbethoxy-11α,16-dihydroxy-16-methyl-6-cis-13-trans-prostadiene]	9310	5920	9510
